Reference: patent US10463044B2, “Molecules that inhibit efflux pumps in multi-drug resistant bacteria and uses thereof” (priority 2014, dated 2019)
Where two headings read alike, the source gives them in different places.

How the values were obtained:
[1] = test system: tetracycline resistant E. coli (tetA efflux pump); format: cell-based, Escherichia coli
Protocol: However, the bacterial strains used herein are multidrug resistant and the effect of hydraphiles on the inhibition of resistance mechanism (efflux pumps) was not known. The hydraphiles and the controls were tested next to see whether they could recover the activity of antibiotics against efflux pump expressing Gram-positive and Gram-negative bacteria. The MIC of antibiotics were determined in the presence of ½ [MIC] or ¼ [MIC] of each hydraphile or the controls used.

[2] = test system: HEK-293 cells; format: cell-based, human
Source text: It could be argued that hydraphiles could also localize and disrupt the mammalian cell membranes. […] These hydraphiles increased the permeability of E. coli cells at ½ MIC concentrations. […] It is concluded that C8-C14 hydraphiles can selectively increase the permeability of bacterial cells without affecting the permeability of mammalian cells. […] DMSO and Triton X-100 were used as controls.

[3] = test system: tetracycline resistant E. coli (tetA efflux pump); experiment: microbe, parasite or virus in culture; format: cell-based, Escherichia coli; settings: microtiter, inhibition greater than 80% considered as the MIC
Source text: Among the organisms studied are several strains of the bacterium E. coli.
Minimal Inhibitory Concentration (MIC) Procedure. […] Streak the E. coli (DH5α or K-12 MG1655) strain on L.B agar plates. […] Prepare initial concentration of all the compounds required. • 5. […] Vortex each test tube for 2-3 seconds. • 9. […] Vortex each test tube for 2-3 seconds. • 11. […]
(§1) The minimal inhibitory concentrations (MIC) of all the compounds against three bacterial strains were first determined using the microtiter technique as described above. […] Antimicrobial property of hydraphiles is attributed to the disruption of ion homeostasis in bacteria.

[4] = test system: S. aureus 1199B; experiment: MIC, S. aureus 1199B; format: cell-based, Staphylococcus aureus
Source text: K. pneumoniae (ATCC BAA 2146; another Gram-negative bacterium) that expresses multiple classes of efflux pumps and NDM-1 gene was also used. This K. pneumoniae is a clinically relevant strain that was isolated from a patient. Gram-positive S. aureus 1199B was used that overexpresses the NorA efflux pump. Since ethidium bromide and norfloxacin are the substrates of efflux pumps, S. aureus 1199B was used to evaluate the activity of efflux pumps in the presence of the hydraphiles and other membrane disruptors.
as §1

[5] = molecular target: T1, NorA efflux pump (Staphylococcus aureus, UniProt P0A0J7); experiment: Ethidium bromide accumulation in S. aureus 1199B; format: cell-based; settings: compound at 4 μM
T1 construct: Gram-positive S. aureus 1199B was used that overexpresses the NorA efflux pump; endogenous in cells; host or cells: S. aureus 1199B
T1 sequence (P0A0J7 whole entry): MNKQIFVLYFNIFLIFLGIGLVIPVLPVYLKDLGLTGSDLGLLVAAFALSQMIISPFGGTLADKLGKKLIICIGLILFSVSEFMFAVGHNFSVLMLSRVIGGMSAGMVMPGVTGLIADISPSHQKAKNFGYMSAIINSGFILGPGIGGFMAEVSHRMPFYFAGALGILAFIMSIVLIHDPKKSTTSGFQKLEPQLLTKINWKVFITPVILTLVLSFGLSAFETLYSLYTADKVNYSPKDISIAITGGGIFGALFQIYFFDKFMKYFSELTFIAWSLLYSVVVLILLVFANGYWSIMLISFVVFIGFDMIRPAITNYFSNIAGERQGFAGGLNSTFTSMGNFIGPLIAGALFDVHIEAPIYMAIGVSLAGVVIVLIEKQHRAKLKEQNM
Protocol: To determine if the activity of efflux pump and accumulation of substrate in the cell cytoplasm was affected by hydraphiles, the S. aureus 1199B strain overexpressing the NorA efflux pump was used. Since ethidium bromide (EB) is one of the substrates of the norA efflux pump, fluorescence from DNA-EB complex was utilized to measure effect of hydraphiles on the norA efflux pump. First, EB was added to the S. aureus 1199B cells followed by hydraphiles or the controls. If the hydraphiles allows for EB accumulation in the cell cytoplasm, an increase in fluorescence would be expected. […] Next step was to determine if the accumulation of EB in the cell cytoplasm was due to the ability of hydraphiles to inhibit the activity of the norA efflux pump or just a simple membrane disruption mechanism.

[6] = molecular target: T1, NorA efflux pump; experiment: Ethidium bromide release from preloaded S. aureus 1199B (efflux pump inhibition); format: cell-based; settings: compound at 4 μM
Protocol: In a following experiment, the ability of hydraphiles to inhibit the activity of efflux pumps was determined. Specifically, the S. aureus cells were preloaded with EB using 100 μM CCCP. The cells were washed to remove extracellular EB and CCCP. The cells were then treated with hydraphiles. If hydraphiles inhibit the activity of efflux pumps, then there should be small or no change in fluorescence of EB-DNA complex. […] However, if there is no effect of hydraphiles on the efflux pump activity, EB would be released resulting in a decrease in fluorescence.

[7] = test system: HeLa; experiment: Cytotoxicity of hydraphiles to HeLa (XTT assay); settings: concentration not given
[8] = test system: Cos-7; experiment: Cytotoxicity of hydraphiles to Cos-7 (XTT assay); settings: concentration not given
[9] = test system: HEK-293; experiment: Cytotoxicity of hydraphiles to HEK-293 (XTT assay); settings: concentration not given
[10] = test system: Tet^R E. coli; experiment: Resistance development by sequential culturing
Source text: Sequential culturing method was used to determine if bacteria could develop resistance to the hydraphiles.

[11] = test system: E. coli cells; experiment: Potassium release from E. coli cells (potassium selective electrode); settings: control
Protocol: This change in potassium ion concentrations was measured using a Potassium selective electrode. […] Gramicidin D and valinomycin were used as controls. […] The potassium transport ability of C8-C14 hydraphiles was then tested at 4 μM.

[12] = amphiphile/control 1700 μM (0.1%)
[13] = amphiphile 1 μM (½[MIC] for C14 hydraphile)

Triton X-100 [reference compound]
[Tetracycline] μM in combination ([1]; amphiphile/control 20 μM): 450 ± 100 µM
Fold Enhancement [1, 12]: 2-fold
[Tetracycline] μM in combination [1, 12]: 450 ± 100 µM
viability and permeability of HEK-293 cells [2]: killed all the HEK-293 cells

N#CC(C#N)=NNc1cccc(Cl)c1 [CCCP]
Minimal Inhibitory Concentrations (MIC) E. coli (Tet^R) ([3]; compound alone): 56 µM
Fold Enhancement [1, 13]: 1-fold
[Antibiotic] μM / Used (μM) in combination [1, 13]: 900 µM
Fold Enhancement ([1]; amphiphile/control 21 μM): 2-fold
[Tetracycline] μM in combination ([1]; amphiphile/control 21 μM): 450 µM
[Tetracycline] μM in combination ([1]; amphiphile/control 42 μM): 225 µM
Minimal Inhibitory Concentrations (MIC) S. aureus 1199B ([4]; compound alone, inhibition greater than 80% considered as the MIC): ≤4 µM
accumulation of ethidium bromide (EB) in the cell cytoplasm [5]: much lower
inhibition of NorA activity, lower than that of hydraphiles [6]: 30%
cytotoxicity to HeLa (control) [7]: cytotoxic
cytotoxicity to Cos-7 (control) [8]: cytotoxic
cytotoxicity to HEK-293 (control) [9]: cytotoxic

CN(C)c1ccc(O)c2c1C[C@H]1C[C@H]3[C@H](N(C)C)C(O)=C(C(N)=O)C(=O)[C@@]3(O)C(O)=C1C2=O [minocycline]
time in which Tet^R E. coli developed resistance [10]: 4 to 6 days

COC(=O)[C@H]1[C@H]2C[C@@H]3c4[nH]c5cc(OC)ccc5c4CCN3C[C@H]2C[C@@H](OC(=O)c2cc(OC)c(OC)c(OC)c2)[C@@H]1OC [Reserpine]
MIC ([3]; Escherichia coli, read-out: Minimal Inhibitory Concentrations (MIC) E. coli (Tet^R), compound alone): > 128 µM
Fold Enhancement ([1]; amphiphile/control 64 μM): 2-fold
[Tetracycline] μM in combination ([1]; amphiphile/control 64 μM): 450 µM
[Tetracycline] μM in combination ([1]; amphiphile/control 128 μM): 225 µM
MIC ([4]; Staphylococcus aureus, 1199B, read-out: Minimal Inhibitory Concentrations (MIC) S. aureus 1199B): > 128 µM
accumulation of ethidium bromide (EB) in the cell cytoplasm [5]: much lower
inhibition of NorA activity, lower than that of hydraphiles [6]: 30%

CC(C)[C@@H]1NC(=O)[C@H](C)OC(=O)[C@@H](C(C)C)NC(=O)[C@@H](C(C)C)OC(=O)[C@H](C(C)C)NC(=O)[C@H](C)OC(=O)[C@@H](C(C)C)NC(=O)[C@@H](C(C)C)OC(=O)[C@H](C(C)C)NC(=O)[C@H](C)OC(=O)[C@@H](C(C)C)NC(=O)[C@@H](C(C)C)OC1=O [Valinomycin, reference compound]
Fold Enhancement ([1]; amphiphile/control 20 μM): 2-fold
[Tetracycline] μM in combination ([1]; amphiphile/control 20 μM): 450 ± 100 µM
ion transport from E. coli (potassium) [11]: no change in ion transport
